How the values were obtained:
AR / CBP ternary complex = test: Ternary complex formation assay (sandwich ELISA, AR capture / CBP detection) in VCaP cell lysates; assay type: cell-based; details: 1.5 hours treatment, sandwich ELISA (AR capture, CBP or p300 detection)
Summary of the method: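 Anti-AR (AR 441)-coated plates capture AR from lysates of VCaP cells grown ≥3 days at 50K/well in 5% charcoal-stripped FBS, dosed with bifunctional for 1.5 h and lysed 30 min at 4 °C. Co-captured CBP/p300 is probed with rabbit mAb and HRP anti-rabbit, then QuantaRed fluorescence (570/585) is read at 0, 5 and 15 min.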

VCaP cells = test: VCaP growth inhibition assay; assay type: cell-based; details: 30 pM R1881, 9 days, CTG
Summary of the method: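 Growth read by CTG luminescence after 9-day exposure to compound (final 100 nM–10 fM, 1:5 steps) plus 30 pM R1881, in phenol red-free DMEM with 5% CSS. Cells pre-incubated 72 h before dosing; IC50 by nonlinear 4-parameter regression.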

| SMILES | EC50 (AR / CBP ternary complex) | IC50 (VCaP cells) |
| --- | --- | --- |
| CC(=O)N1CCc2c(c(Nc3ccc(-c4cnn(C)c4)cc3F)nn2C2CN(C3CCN(c4ncc(C(=O)NC5C(C)(C)C(Oc6ccc(C#N)c(Cl)c6)C5(C)C)cn4)CC3)C2)C1 (stereo not drawn) [Compound 5, 2-[4-[3-[5-acetyl-3-[2-fluoro-4-(1-methylpyrazol-4-yl)anilino]-6,7-dihydro-4H-pyrazolo[4,3-c]pyridin-1-yl]azetidin-1-yl]-1-piperidyl]-N-[3-(3-chloro-4-cyano-phenoxy)-2,2,4,4-tetramethyl-cyclobutyl]pyrimidine-5-carboxamide] | > 100 nM | > 100 nM |
| CC(=O)N1CCc2c(c(N3CCCc4cc(-c5cnn(C)c5)c(C(F)F)cc43)nn2C2CCN(Cc3ncc(C(=O)NC4C(C)(C)C(Oc5ccc(C#N)c(Cl)c5)C4(C)C)cn3)CC2)C1 (stereo not drawn) [Compound 94, 2-[[4-[5-acetyl-3-[7-(difluoromethyl)-6-(1-methylpyrazol-4-yl)-3,4-dihydro-2H-quinolin-1-yl]-6,7-dihydro-4H-pyrazolo[4,3-c]pyridin-1-yl]-1-piperidyl]methyl]-N-[3-(3-chloro-4-cyano-phenoxy)-2,2,4,4-tetramethyl-cyclobutyl]pyrimidine-5-carboxamide] | 10 to 100 nM | 1 to 100 nM |
| CC(=O)N1CCc2c(c(N3CCCc4cc(-c5cnn(C)c5)c(C(F)F)cc43)nn2CCCN(C)c2ncc(C(=O)NC3C(C)(C)C(Oc4ccc(C#N)c(Cl)c4)C3(C)C)cn2)C1 (stereo not drawn) [Compound 44, 2-[3-[5-acetyl-3-[7-(difluoromethyl)-6-(1-methylpyrazol-4-yl)-3,4-dihydro-2H-quinolin-1-yl]-6,7-dihydro-4H-pyrazolo[4,3-c]pyridin-1-yl]propyl-methyl-amino]-N-[3-(3-chloro-4-cyano-phenoxy)-2,2,4,4-tetramethyl-cyclobutyl]pyrimidine-5-carboxamide] | > 100 nM | > 100 nM |
| CC(=O)N1CCc2c(c(N3CCCc4cc(-c5cnn(C)c5)c(C(F)F)cc43)nn2C2CCC3(CC2)CCN(CC2CN(c4ccc(C(=O)NC5C(C)(C)C(Oc6ccc(C#N)c(Cl)c6)C5(C)C)nn4)C2)CC3)C1 (stereo not drawn) [Compound 209, 6-[3-[[9-[5-acetyl-3-[7-(difluoromethyl)-6-(1-methylpyrazol-4-yl)-3,4-dihydro-2H-quinolin-1-yl]-6,7-dihydro-4H-pyrazolo[4,3-c]pyridin-1-yl]-3-azaspiro[5.5]undecan-3-yl]methyl]azetidin-1-yl]-N-[3-(3-chloro-4-cyano-phenoxy)-2,2,4,4-tetramethyl-cyclobutyl]pyridazine-3-carboxamide] | 10 to 100 nM | ≤ 0.1 nM |
| CC(=O)N1CCc2c(c(N3CCCc4ccc(C(F)F)cc43)nn2C2CC3(C2)CN(C(=O)C2CC4(C2)CN(c2ncc(C(=O)NC5C(C)(C)C(Oc6ccc(C#N)c(Cl)c6)C5(C)C)cn2)C4)C3)C1 (stereo not drawn) [Compound 218, 2-[6-[6-[5-acetyl-3-[7-(difluoromethyl)-3,4-dihydro-2H-quinolin-1-yl]-6,7-dihydro-4H-pyrazolo[4,3-c]pyridin-1-yl]-2-azaspiro[3.3]heptane-2-carbonyl]-2-azaspiro[3.3]heptan-2-yl]-N-[3-(3-chloro-4-cyano-phenoxy)-2,2,4,4-tetramethyl-cyclobutyl]pyrimidine-5-carboxamide] | > 100 nM | 1 to 100 nM |
| COc1cc(OC2C(C)(C)C(NC(=O)c3ccc(N4CCC5(CCC(n6nc(N7CCCc8cc(-c9cnn(C)c9)c(C(F)F)cc87)c7c6CCN(C(C)=O)C7)CC5)C4)cc3)C2(C)C)ccc1C#N (stereo not drawn) [Compound 406, 4-[8-[5-acetyl-3-[7-(difluoromethyl)-6-(1-methylpyrazol-4-yl)-3,4-dihydro-2H-quinolin-1-yl]-6,7-dihydro-4H-pyrazolo[4,3-c]pyridin-1-yl]-2-azaspiro[4.5]decan-2-yl]-N-[3-(4-cyano-3-methoxy-phenoxy)-2,2,4,4-tetramethyl-cyclobutyl]benzamide] | 1 to 10 nM | 1 to 100 nM |
| CC(=O)N1CCc2c(c(N3CCCc4ccccc43)nn2C2CCN(CC3CCN(c4ncc(C(=O)NC5C(C)(C)C(Oc6ccc(C#N)c(Cl)c6)C5(C)C)cn4)CC3)CC2)C1 (stereo not drawn) [Compound 158, 2-[4-[[4-[5-acetyl-3-(3,4-dihydro-2H-quinolin-1-yl)-6,7-dihydro-4H-pyrazolo[4,3-c]pyridin-1-yl]-1-piperidyl]methyl]-1-piperidyl]-N-[3-(3-chloro-4-cyano-phenoxy)-2,2,4,4-tetramethyl-cyclobutyl]pyrimidine-5-carboxamide] | 1 to 10 nM | ≤ 0.1 nM |
| CC(=O)N1CCc2c(c(N3CCCc4cc(-c5cnn(C)c5)c(C(F)F)cc43)nn2C2CCN(C(=O)C3CCN(c4ccc(C(=O)NC5C(C)(C)C(Oc6ccc(C#N)c(Cl)c6)C5(C)C)nn4)CC3)CC2)C1 (stereo not drawn) [Compound 114, 6-[4-[4-[5-acetyl-3-[7-(difluoromethyl)-6-(1-methylpyrazol-4-yl)-3,4-dihydro-2H-quinolin-1-yl]-6,7-dihydro-4H-pyrazolo[4,3-c]pyridin-1-yl]piperidine-1-carbonyl]-1-piperidyl]-N-[3-(3-chloro-4-cyano-phenoxy)-2,2,4,4-tetramethyl-cyclobutyl]pyridazine-3-carboxamide] | < 1 nM | ≤ 0.1 nM |

Second part, the compound after the results:

| EC50 (AR / CBP ternary complex) | IC50 (VCaP cells) | SMILES |
| --- | --- | --- |
| < 1 nM | ≤ 0.1 nM | CC(=O)N1CCc2c(c(N3CCCc4cc(-c5cnn(C)c5)c(C(F)F)cc43)nn2C2CCC(CN3CCN(c4ncc(C(=O)NC5C(C)(C)C(Oc6ccc(C#N)c(Cl)c6)C5(C)C)cn4)CC3)CC2)C1 (stereo not drawn) [Compound 318, 2-[4-[[4-[5-acetyl-3-[7-(difluoromethyl)-6-(1-methylpyrazol-4-yl)-3,4-dihydro-2H-quinolin-1-yl]-6,7-dihydro-4H-pyrazolo[4,3-c]pyridin-1-yl]cyclohexyl]methyl]piperazin-1-yl]-N-[3-(3-chloro-4-cyano-phenoxy)-2,2,4,4-tetramethyl-cyclobutyl]pyrimidine-5-carboxamide] |
| < 1 nM | 0.1 to 1 nM | COC1CN(c2ncc(C(=O)NC3C(C)(C)C(Oc4ccc(C#N)c(Cl)c4)C3(C)C)cn2)CCC1CN1CCC(n2nc(N3CCCc4cc(-c5cnn(C)c5)c(C(F)F)cc43)c3c2CCN(C(C)=O)C3)CC1 (stereo not drawn) [Compound 331, 2-[4-[[4-[5-acetyl-3-[7-(difluoromethyl)-6-(1-methylpyrazol-4-yl)-3,4-dihydro-2H-quinolin-1-yl]-6,7-dihydro-4H-pyrazolo[4,3-c]pyridin-1-yl]-1-piperidyl]methyl]-3-methoxy-1-piperidyl]-N-[3-(3-chloro-4-cyano-phenoxy)-2,2,4,4-tetramethyl-cyclobutyl]pyrimidine-5-carboxamide] |
| 1 to 10 nM | 0.1 to 1 nM | CC(=O)N1CCc2c(c(N3CCCc4cc(-c5cnn(C)c5)c(C(F)F)cc43)nn2C2CCN(CC3CCN(c4ncc(C(=O)NC5C(C)(C)C(Oc6ccc(C#N)c(Cl)c6)C5(C)C)cn4)CC3)C2)C1 (stereo not drawn) [Compound 21, 2-[4-[[3-[5-acetyl-3-[7-(difluoromethyl)-6-(1-methylpyrazol-4-yl)-3,4-dihydro-2H-quinolin-1-yl]-6,7-dihydro-4H-pyrazolo[4,3-c]pyridin-1-yl]pyrrolidin-1-yl]methyl]-1-piperidyl]-N-[3-(3-chloro-4-cyano-phenoxy)-2,2,4,4-tetramethyl-cyclobutyl]pyrimidine-5-carboxamide] |
| < 1 nM | ≤ 0.1 nM | COc1cc(OC2C(C)(C)C(NC(=O)c3ccc(N4CCC(N5CCC(n6nc(N7CCCc8cc(-c9cnn(C)c9)c(C(F)F)cc87)c7c6CCN(C(C)=O)C7)CC5)C(F)(F)C4)cc3)C2(C)C)ccc1C#N (stereo not drawn) [Compound 302, 4-[4-[4-[5-acetyl-3-[7-(difluoromethyl)-6-(1-methylpyrazol-4-yl)-3,4-dihydro-2H-quinolin-1-yl]-6,7-dihydro-4H-pyrazolo[4,3-c]pyridin-1-yl]-1-piperidyl]-3,3-difluoro-1-piperidyl]-N-[3-(4-cyano-3-methoxy-phenoxy)-2,2,4,4-tetramethyl-cyclobutyl]benzamide] |
| < 1 nM | ≤ 0.1 nM | COc1cc(OC2C(C)(C)C(NC(=O)c3ccc(N4CCN(C5CN(c6ccc(-c7cc8cccc(-c9nn(C%10CCOCC%10)c%10c9CN(C(C)=O)CC%10)c8cn7)cn6)C5)CC4)cc3)C2(C)C)ccc1C#N (stereo not drawn) [Compound 322, 4-[4-[1-[5-[8-(5-acetyl-1-tetrahydropyran-4-yl-6,7-dihydro-4H-pyrazolo[4,3-c]pyridin-3-yl)-3-isoquinolyl]-2-pyridyl]azetidin-3-yl]piperazin-1-yl]-N-[3-(4-cyano-3-methoxy-phenoxy)-2,2,4,4-tetramethyl-cyclobutyl]benzamide] |
| < 1 nM | 0.1 to 1 nM | CC(=O)N1CCc2c(c(Nc3ccc(-c4cnn(C)c4)cc3F)nn2CCOCCN2CCN(c3ncc(C(=O)NC4C(C)(C)C(Oc5ccc(C#N)c(Cl)c5)C4(C)C)cn3)CC2)C1 (stereo not drawn) [Compound 1, 2-[4-[2-[2-[5-acetyl-3-[2-fluoro-4-(1-methylpyrazol-4-yl)anilino]-6,7-dihydro-4H-pyrazolo[4,3-c]pyridin-1-yl]ethoxy]ethyl]piperazin-1-yl]-N-[3-(3-chloro-4-cyano-phenoxy)-2,2,4,4-tetramethyl-cyclobutyl]pyrimidine-5-carboxamide] |
| 1 to 10 nM | 1 to 100 nM | COc1cc(OC2C(C)(C)C(NC(=O)c3ccc(N4CCC[C@H](N5CCC(n6nc(N7CCCc8cc(-c9cnn(C)c9)c(C(F)F)cc87)c7c6CCN(C(C)=O)C7)CC5)C4)cc3)C2(C)C)ccc1C#N (stereo partly drawn) [Compound 399, 4-[(3S)-3-[4-[5-acetyl-3-[7-(difluoromethyl)-6-(1-methylpyrazol-4-yl)-3,4-dihydro-2H-quinolin-1-yl]-6,7-dihydro-4H-pyrazolo[4,3-c]pyridin-1-yl]-1-piperidyl]-1-piperidyl]-N-[3-(4-cyano-3-methoxy-phenoxy)-2,2,4,4-tetramethyl-cyclobutyl]benzamide] |
